The structures appear in SMILES notation.

Assay [1] concerns the target Ribosomal protein S6 kinase alpha-5 (Homo sapiens) (UniProt O75582). Put plainly: Selectivity interaction (KinomeScan (DiscoverX)) EUB0000655a RPS6KA5. Particulars: at 10 µM.
The target of assay [2] is Serine/threonine-protein kinase 32A (Homo sapiens) (UniProt Q8WU08). Put plainly: Selectivity interaction (KinomeScan (DiscoverX)) EUB0000655a STK32A. Particulars: at 10 µM.
For assay [3], the target named is Tyrosine-protein kinase Fer (Homo sapiens) (UniProt P16591). Put plainly: Selectivity interaction (Kinase panel (Z-LYTE Assay)) EUB0001632a FER. Particulars: at 10 µM.
Assay [4] has as its target TRAF2 and NCK-interacting protein kinase (Homo sapiens) (UniProt Q9UKE5). Put plainly: Selectivity interaction (LanthaScreen Eu Kinase Binding Assay) EUB0001632a TNIK. Particulars: at 10 µM. A general note: In TR-FRET formats the signal depends on donor and acceptor labels being close together.
In assay [5] the target is T1, Histone-arginine methyltransferase CARM1 (Homo sapiens) (UniProt Q86X55).
T1 sequence (whole entry): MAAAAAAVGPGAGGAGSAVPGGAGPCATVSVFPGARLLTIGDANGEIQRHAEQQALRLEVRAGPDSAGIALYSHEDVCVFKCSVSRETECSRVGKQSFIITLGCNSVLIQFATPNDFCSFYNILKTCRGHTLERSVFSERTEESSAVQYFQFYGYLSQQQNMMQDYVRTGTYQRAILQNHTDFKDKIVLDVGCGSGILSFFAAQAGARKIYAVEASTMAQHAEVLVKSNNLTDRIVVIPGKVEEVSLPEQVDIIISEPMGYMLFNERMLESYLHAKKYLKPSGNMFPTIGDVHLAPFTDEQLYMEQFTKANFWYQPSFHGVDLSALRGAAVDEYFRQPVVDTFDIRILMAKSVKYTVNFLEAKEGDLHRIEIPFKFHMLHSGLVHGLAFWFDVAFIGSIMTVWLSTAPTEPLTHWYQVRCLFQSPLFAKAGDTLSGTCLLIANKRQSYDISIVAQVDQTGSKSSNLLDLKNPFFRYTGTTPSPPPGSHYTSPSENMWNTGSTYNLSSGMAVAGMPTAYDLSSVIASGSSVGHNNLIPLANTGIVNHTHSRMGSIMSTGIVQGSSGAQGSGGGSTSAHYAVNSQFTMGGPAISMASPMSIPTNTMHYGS
The note with it: at 1 µM.

The target of assay [6] is T2, Serine/threonine-protein kinase TAO3 (Homo sapiens) (UniProt Q9H2K8).
T2 sequence (whole entry): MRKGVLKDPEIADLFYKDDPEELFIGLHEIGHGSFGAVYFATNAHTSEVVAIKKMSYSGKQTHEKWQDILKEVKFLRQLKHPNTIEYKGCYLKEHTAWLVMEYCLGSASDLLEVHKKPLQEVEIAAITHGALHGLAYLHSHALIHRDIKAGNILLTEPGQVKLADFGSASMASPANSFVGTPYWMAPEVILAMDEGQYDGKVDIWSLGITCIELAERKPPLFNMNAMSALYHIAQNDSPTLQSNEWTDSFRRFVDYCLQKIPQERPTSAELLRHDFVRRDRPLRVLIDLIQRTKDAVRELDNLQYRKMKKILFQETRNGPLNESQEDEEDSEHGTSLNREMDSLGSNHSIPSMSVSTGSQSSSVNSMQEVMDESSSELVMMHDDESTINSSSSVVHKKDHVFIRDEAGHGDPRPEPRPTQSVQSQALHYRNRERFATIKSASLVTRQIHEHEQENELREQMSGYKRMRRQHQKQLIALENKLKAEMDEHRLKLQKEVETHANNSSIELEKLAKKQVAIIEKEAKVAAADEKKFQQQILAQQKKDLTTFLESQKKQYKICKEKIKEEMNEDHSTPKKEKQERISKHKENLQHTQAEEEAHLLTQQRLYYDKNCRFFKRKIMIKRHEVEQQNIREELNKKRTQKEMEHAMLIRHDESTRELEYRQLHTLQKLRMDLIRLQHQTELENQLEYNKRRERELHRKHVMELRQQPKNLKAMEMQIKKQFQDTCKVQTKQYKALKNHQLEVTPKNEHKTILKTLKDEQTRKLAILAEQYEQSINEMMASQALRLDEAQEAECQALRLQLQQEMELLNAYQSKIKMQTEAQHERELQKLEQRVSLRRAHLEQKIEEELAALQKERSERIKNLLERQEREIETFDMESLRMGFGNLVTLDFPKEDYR
Put plainly: Selectivity interaction (KinomeScan (DiscoverX)) EUB0000607a TAOK3. Particulars: at 10 µM.

In assay [7] the target is T3, Scaffold protein ILK (Homo sapiens) (UniProt Q13418).
T3 sequence (whole entry): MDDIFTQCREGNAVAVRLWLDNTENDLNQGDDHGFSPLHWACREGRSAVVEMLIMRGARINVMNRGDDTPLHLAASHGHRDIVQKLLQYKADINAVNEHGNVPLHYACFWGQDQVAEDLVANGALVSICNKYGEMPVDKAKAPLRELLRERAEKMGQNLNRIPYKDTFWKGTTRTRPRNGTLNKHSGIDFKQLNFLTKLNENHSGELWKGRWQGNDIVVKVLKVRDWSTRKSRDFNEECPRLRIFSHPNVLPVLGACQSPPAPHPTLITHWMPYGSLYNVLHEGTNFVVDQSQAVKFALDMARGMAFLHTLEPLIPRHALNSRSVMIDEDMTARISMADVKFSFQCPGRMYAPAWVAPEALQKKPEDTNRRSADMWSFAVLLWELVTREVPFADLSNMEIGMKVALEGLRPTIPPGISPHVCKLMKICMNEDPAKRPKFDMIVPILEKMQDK
Put plainly: Selectivity interaction (ActivX KiNativ screen (kinase selectivity in THP-1 cell lysates)) EUB0000639a ILK. The note with it: lysate, at 5 µM. It counts as subcellular.

In assay [8] the target is eIF-2-alpha kinase GCN2 (Homo sapiens) (UniProt Q9P2K8). Put plainly: Selectivity interaction (Kinase panel (KiNativ target engagement assay in Jurkat cells)) EUB0001635a EIF2AK4. It counts as cell-based. Particulars: at 1 µM.
Assay [9] has as its target Serine/threonine-protein kinase 32B (Homo sapiens) (UniProt Q9NY57). Put plainly: Selectivity interaction (KinomeScan (DiscoverX)) EUB0000618a STK32B. The note with it: at 10 µM.

Sequence of eIF-2-alpha kinase GCN2 (Homo sapiens) (Q9P2K8 whole entry): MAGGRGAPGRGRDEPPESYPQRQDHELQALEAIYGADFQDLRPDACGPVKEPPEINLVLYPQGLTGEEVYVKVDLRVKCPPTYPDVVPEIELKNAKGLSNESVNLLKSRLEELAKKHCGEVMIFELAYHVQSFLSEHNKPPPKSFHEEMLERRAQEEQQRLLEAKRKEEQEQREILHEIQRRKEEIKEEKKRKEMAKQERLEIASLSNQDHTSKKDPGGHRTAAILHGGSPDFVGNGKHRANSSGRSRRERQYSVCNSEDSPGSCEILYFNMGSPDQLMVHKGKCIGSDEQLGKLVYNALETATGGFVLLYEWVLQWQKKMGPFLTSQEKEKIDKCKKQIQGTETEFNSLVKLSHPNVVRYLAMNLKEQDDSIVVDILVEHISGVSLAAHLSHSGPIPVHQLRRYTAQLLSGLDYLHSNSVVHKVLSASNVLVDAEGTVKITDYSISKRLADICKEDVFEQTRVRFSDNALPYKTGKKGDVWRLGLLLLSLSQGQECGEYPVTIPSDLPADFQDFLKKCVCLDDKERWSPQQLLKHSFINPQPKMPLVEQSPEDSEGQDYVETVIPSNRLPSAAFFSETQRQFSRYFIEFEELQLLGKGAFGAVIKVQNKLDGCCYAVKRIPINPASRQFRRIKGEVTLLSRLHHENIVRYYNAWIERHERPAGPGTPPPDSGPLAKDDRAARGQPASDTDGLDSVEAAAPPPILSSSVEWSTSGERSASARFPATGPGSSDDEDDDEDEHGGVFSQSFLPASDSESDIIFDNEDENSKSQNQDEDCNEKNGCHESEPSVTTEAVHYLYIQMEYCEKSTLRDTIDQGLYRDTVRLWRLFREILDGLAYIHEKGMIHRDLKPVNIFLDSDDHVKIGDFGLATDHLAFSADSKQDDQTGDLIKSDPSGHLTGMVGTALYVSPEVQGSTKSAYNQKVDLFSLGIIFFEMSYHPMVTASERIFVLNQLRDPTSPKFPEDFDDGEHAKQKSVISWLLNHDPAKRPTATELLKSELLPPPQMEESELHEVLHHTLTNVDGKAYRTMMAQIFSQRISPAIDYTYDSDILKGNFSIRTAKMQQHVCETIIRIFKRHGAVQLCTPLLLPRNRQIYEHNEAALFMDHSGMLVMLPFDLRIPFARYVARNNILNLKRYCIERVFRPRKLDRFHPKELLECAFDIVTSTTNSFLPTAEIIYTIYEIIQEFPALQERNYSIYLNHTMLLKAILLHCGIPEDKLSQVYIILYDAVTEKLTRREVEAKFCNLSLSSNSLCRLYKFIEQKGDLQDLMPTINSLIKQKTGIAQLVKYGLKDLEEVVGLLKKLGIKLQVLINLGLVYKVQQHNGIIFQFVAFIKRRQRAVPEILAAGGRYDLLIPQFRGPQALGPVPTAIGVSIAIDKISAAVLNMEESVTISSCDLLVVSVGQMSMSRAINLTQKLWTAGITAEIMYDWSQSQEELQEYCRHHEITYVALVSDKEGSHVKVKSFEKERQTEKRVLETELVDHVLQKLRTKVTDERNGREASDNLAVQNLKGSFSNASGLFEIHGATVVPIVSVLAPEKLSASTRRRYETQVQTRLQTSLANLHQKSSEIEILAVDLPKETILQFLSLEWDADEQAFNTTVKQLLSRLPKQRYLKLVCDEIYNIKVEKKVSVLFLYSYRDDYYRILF
Sequence of TRAF2 and NCK-interacting protein kinase (Homo sapiens) (Q9UKE5 whole entry, looked up): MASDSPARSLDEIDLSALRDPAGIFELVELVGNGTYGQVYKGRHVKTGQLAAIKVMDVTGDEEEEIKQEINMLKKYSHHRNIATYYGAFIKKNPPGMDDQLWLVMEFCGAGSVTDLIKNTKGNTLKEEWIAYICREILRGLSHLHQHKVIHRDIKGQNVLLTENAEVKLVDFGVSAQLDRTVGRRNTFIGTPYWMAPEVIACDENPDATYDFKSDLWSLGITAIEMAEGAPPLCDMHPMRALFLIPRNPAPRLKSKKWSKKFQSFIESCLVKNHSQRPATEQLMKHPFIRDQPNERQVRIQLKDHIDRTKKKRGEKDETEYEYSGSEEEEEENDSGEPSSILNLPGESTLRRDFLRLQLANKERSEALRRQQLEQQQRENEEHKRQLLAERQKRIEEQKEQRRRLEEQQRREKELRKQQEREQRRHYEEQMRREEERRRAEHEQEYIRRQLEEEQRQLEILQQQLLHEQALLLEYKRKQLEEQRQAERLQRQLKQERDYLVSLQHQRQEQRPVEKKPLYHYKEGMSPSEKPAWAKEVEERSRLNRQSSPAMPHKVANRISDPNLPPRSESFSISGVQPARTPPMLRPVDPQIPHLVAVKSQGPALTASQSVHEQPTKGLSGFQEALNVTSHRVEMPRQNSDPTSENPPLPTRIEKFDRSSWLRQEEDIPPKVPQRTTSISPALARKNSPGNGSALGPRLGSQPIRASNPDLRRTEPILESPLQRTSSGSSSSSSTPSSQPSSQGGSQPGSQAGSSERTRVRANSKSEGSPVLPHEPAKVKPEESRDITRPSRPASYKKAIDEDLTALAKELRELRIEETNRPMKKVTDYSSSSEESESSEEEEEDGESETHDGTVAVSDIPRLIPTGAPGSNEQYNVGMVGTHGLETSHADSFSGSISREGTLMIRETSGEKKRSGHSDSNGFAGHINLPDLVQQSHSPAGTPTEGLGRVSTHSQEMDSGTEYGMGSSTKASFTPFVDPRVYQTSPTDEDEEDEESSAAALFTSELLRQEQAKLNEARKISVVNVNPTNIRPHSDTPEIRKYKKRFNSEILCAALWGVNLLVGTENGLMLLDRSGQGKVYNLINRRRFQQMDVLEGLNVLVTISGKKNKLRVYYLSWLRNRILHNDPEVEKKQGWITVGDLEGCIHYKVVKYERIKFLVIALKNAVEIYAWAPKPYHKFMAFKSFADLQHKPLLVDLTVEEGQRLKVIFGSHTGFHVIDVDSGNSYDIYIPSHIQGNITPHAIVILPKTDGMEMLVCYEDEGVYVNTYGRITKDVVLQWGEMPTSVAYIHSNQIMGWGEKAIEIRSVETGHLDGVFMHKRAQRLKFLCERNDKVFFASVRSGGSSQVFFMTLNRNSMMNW
Sequence of Serine/threonine-protein kinase 32B (Homo sapiens) (Q9NY57 whole entry): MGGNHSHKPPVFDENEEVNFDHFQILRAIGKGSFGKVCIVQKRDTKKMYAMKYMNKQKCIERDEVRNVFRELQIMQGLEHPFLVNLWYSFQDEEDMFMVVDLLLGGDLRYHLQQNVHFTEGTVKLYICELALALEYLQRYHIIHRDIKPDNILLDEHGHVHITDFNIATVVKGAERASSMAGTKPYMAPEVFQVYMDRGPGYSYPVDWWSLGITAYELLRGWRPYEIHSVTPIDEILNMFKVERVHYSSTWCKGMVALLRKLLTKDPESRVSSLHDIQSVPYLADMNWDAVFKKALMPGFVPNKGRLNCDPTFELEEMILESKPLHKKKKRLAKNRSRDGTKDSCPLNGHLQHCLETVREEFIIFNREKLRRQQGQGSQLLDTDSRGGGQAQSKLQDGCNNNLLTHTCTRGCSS
Sequence of Serine/threonine-protein kinase 32A (Homo sapiens) (Q8WU08 whole entry): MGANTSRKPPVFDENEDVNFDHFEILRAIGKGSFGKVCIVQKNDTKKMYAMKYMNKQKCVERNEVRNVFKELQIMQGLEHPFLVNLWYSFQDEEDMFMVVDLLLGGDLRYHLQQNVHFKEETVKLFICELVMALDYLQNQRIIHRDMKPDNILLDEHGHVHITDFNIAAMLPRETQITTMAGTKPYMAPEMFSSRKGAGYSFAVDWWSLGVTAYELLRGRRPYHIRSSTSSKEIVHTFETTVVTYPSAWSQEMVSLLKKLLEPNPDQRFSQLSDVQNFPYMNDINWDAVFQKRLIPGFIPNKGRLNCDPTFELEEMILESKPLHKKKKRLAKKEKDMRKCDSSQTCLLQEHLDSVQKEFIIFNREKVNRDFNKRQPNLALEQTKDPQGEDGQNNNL
Sequence of Tyrosine-protein kinase Fer (Homo sapiens) (P16591 whole entry, looked up): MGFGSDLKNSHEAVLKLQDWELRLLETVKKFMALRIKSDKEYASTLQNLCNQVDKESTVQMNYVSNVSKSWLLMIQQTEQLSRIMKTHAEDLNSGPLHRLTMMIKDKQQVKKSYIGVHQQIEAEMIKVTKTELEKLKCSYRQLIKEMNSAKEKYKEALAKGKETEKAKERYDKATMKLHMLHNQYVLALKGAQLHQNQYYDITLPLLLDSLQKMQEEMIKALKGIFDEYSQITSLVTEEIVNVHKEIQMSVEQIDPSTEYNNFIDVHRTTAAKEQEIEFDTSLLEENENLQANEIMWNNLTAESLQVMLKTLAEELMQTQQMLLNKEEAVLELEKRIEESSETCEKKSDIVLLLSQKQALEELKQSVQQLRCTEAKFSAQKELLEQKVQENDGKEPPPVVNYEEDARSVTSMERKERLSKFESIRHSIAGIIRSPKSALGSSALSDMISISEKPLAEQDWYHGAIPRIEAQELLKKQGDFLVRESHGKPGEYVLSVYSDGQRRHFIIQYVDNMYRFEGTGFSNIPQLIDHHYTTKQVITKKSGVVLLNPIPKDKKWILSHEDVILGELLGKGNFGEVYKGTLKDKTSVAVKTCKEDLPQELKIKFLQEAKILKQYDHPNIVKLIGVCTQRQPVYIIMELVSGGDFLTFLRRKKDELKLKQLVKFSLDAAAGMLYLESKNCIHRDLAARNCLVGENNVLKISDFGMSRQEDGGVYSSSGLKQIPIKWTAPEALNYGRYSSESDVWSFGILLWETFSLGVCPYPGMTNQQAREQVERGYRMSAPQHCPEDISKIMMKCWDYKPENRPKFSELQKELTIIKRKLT

For `CN(C)CCOc1ccc(-c2nc(-c3ccncc3)c(-c3ccc4c(c3)CC/C4=N\O)[nH]2)cc1`, the % of control worked out at 90% in assay [1] and 85% in assay [2].
As to `Cn1cc(-n2cnc3c(NCc4nc5cc(Cl)c(Cl)cc5[nH]4)nc(N4CCOCC4)nc32)cn1`, in [3], the % of control stood at 3.17%. Moreover, the % of inhibition in [4] is -13.9%.
In assay [5], `CNCCN1CCC(c2cc(CN(C)C(=O)c3cccc(Oc4ccccc4)c3)ccn2)CC1` gave a % activity of 75%.
On to `CNC(=O)Nc1ccc(-c2nc(N3CC4CCC(C3)O4)c3cnn(C4CCC5(CC4)OCCO5)c3n2)cc1`, for which, in assay [6], the % of control was 90%.
Take `CC[C@@H]1[C@H](F)C(=O)N[C@@H]1COc1nccc2cc(C(N)=O)c(OC)cc12` [ZIMLOVISERTIB]: in [7], the % of inhibition was -24.1%.
`C=CC(=O)Nc1ccc(C(=O)Nc2[nH]nc3c2CN(C(=O)N[C@H](CN(C)C)c2ccccc2)C3(C)C)cc1`: the % of engagement in assay [8] (Selectivity number of off-targets 0.0, Selectivity number of targets 233.0, Source Knowledge https://www.sciencedirect.com/science/article/pii/S2451945619300674?via%3Dihub) was -7.2%; in [8], -16.6%.
Regarding `O[C@H]1CC[C@H](Nc2ncc3nc(Nc4c(F)cc(F)cc4F)n([C@H]4CCOC4)c3n2)CC1`, the % of control in assay [9] was 87%.

The values are drawn from ChEMBL document CHEMBL5465560, “Selectivity Literature for EUbOPEN Chemogenomic Library” (2024).
